Laboratory results published in patent US20240252660A1, “CARGO MOLECULE TRANSDUCTION DOMAIN RMMR1, VARIANT THEREOF, RECOMBINANT CARGO MOLECULE, AND METHOD FOR TRANSDUCING CARGO MOLECULE USING SAME” (REMEDI CO., LTD., priority 2021, published 2024).
Where no end group is shown, it is not given here.

Key:
Type in all cases: cell-based
cells = assay: FACS experiment to verify self-penetration efficacy of FITC peptides (summary statement); conditions: FITC-labelled peptide, cells not specified
Excerpt: The present inventors synthesized FITC and conducted a FACS experiment to verify its self-penetration efficacy using the cell-penetrating peptide RMMR1 derived from the human MRPL15 protein.

RAW264.7 cells = assay: Antigen-presenting cell penetration efficiency of FITC-attached peptide; conditions: 2.5 uM, 2 hours, FITC fluorescence
Description: (§1) HaCaT, 3T3, and B16F10 cells were cultured in cell culture medium supplemented with 10% of fetal bovine serum (FBS) and antibiotic solution (100 units/ml of penicillin, 100 μg/ml of streptomycin) in DMEM medium. Cells were cultured under conditions maintained at 37° C., 95% humidity, and 5% CO2, and when the cells were 70-80% adhered to the culture dish, they were treated with trypsin-EDTA and subcultured. HaCaT cells were distributed and cultured from Professor Kim Tae Yoon of the College of Medicine, The Catholic University of Korea, 3T3 and B16F10 cells were distributed and cultured from the Seoul National University Cell Line Bank. RAW264.7 cells were distributed and cultured from the laboratory of Professor Kim Sang-Beom, College of Pharmacy, Sahmyook University.
In order to identify the penetration efficiency of RMMR1 into antigen-presenting cells, the transduction efficiency was confirmed using cell line RAW264.7 using a synthetic peptide attached with fluorescent FITC. In the case of cells without FITC attached, it is difficult to identify the permeability of the peptide, so attaching fluorescent FITC makes it easier to identify cell permeability. Each cell line was treated with FITC-attached peptides RMMR1-FITC (SEQ. NO. 1) and TAT-FITC at the same concentration of 2.5 uM for 2 hours.

3T3 cells = assay: RMMR1-FITC synthetic peptide cell penetration efficiency (fluorescence value) in 3T3; conditions: 2.5 uM, 2 hours
Description: as §1
(§2) In order to evaluate the cell permeability of RMMR1 in HaCaT, 3T3, B16F10 cells, 1×10^5 of HaCaT cells were attached to a 24-well plate 12 hours in advance. Thereafter, the cells were washed using serum-free DMEM medium and then treated with 2.5 uM of protein in serum-free medium for 2 hours. After 2 hours, the cells were washed a total of 3 times with serum-free medium, and then the cells were detached from the plate by treatment with 150 ul of trypsin, and then neutralized by adding 850 ul of serum-containing medium. […]

B16F10 cells = assay: RMMR1-FITC synthetic peptide cell penetration efficiency (fluorescence value) in B16F10; conditions: 2.5 uM, 2 hours
Description: as §1, §2

Substance | cell penetration compared with HIV-Tat peptide (FITC, FACS) (cells) | level of cell penetration compared with control TAT-FITC peptide (RAW264.7 cells) | cell penetration level compared with control TAT-FITC peptide (3T3 cells) | cell penetration level compared with control TAT-FITC peptide (B16F10 cells)
ERRPRGRRRGRKC (listed as Homo sapiens) [RMMR1, 13 amino acid cargo molecule transduction domain derived from human MRPL15] | penetrated cells much better than the HIV-Tat peptide | – | – | –
RMMR1-FITC: RMMR1 (SEQ ID NO: 1) synthetic peptide attached with fluorescent FITC (ERRPRGRRRGRKC; also: FITC label, attachment site not given here; listed as Homo sapiens) | – | higher level of cell penetration compared to the control TAT-FITC peptide | significantly higher cell penetration level than the control TAT-FITC peptide | significantly higher cell penetration level than the control TAT-FITC peptide
